{"source": "patent US20250282819A1", "about": "“MITOCHONDRIA-[…] PEPTIDE THAT CAN BE […] DELIVERED AT NANOMOLAR CONCENTRATION, AND USE THEREOF” (CAMP THERAPEUTICS INC., priority 2021, published 2025)", "key": {"[1]": {"test": "Cardiolipin binding assay, NBD fluorescence with liposomes", "description": "To further validate specificity of CMP3013 for cardiolipin-rich membranes identified in Example 9, two model systems mimicking the inner mitochondrial membrane were constructed using POPC (1-palmitoyl-2-oleoyl-sn-glycero-3-phosphocholine) and POPE (1-palmitoyl-2-oleoyl-sn-glycero-3-phosphoethanolamine), and cardiolipin binding assays were performed using an NBD-labeled CMP3013 monomer (NBD-CMP3013m), according to the method described in Experimental Example 12.\nFor the association experiments, 1 μM of NBD-labeled peptide dissolved in PBS was prepared in a black 96-well plate. Liposome (POPC:POPE=2:1 or POPC:POPE=2:1, containing 10% cardiolipin) was added to the peptide until the desired concentration was achieved. The mixture of NBD-peptide and liposome was mixed well through pipetting, and then fluorescence emission of the sample was monitored (λex=467 nm, λem=536 nm).\nFor the association experiments depending on cardiolipin ratio, 1 μM of NBD-labeled peptide or C6-NBD dissolved in PBS was prepared in a black 96-well plate. Liposome (POPC:POPE=2:1, containing 0 to 20% cardiolipin) was added to the peptide until the desired concentration (5 μM) was achieved. This mixture was mixed well through pipetting and fluorescence emission of the sample was monitored (λex=467 nm, λem=536 nm).\nFor dissociation experiments, 1 μM of NBD-labeled peptide dissolved in PBS was prepared in a black 96-well plate. Liposome (POPC:POPE=2:1 or POPC:POPE=2:1, containing 10% cardiolipin) was added to the peptide until the desired concentration (100 μM) was achieved. The mixture of NBD-peptide and liposome was mixed well through pipetting and fluorescence intensity of the mixture was measured (λex=467 nm, λem=536 nm). The unlabeled peptide (acetylated peptide) was then added to the mixture and mixed well through pipetting. Incubation in the dark was performed for 10 minutes, and then changes in fluorescence intensity were monitored. Peptide addition and fluorescence measurement were repeated until the concentration of acetylated peptide reached 40 μM."}, "[2]": {"system": "SH-SY5Y cells", "test": "ROS production inhibiting ability, comparison of SS-31 and CMP3013", "format": "cell-based", "conditions": "CCCP, rotenone, antimycin A or H2O2, SS-31 100 nM or 1 μM, CMP3013 10 nM or 100 nM", "description": "To compare effects of the two peptides on restoration of mitochondrial function, SS-31 and CMP3013 were tested for their ROS production inhibiting ability. The relative ROS levels in cells were compared by fluorescence intensity according to the method described in Experimental Example 6. SH-SY5Y cells were treated with four different mitochondrial damaging agents (200 μM CCCP, 50 μM rotenone, 10 μM antimycin A, or 50 μM H2O2) to induce production of ROS by mitochondrial damage.\nThe second method was performed as follows. First, 2×10^4 HeLa cells were seeded into a 96-well plate. After 24 hours, the cells were incubated with each peptide for 3 hours, and then staining with H2DCFDA (25 μM, 30 min) was performed. After performing washing twice with PBS, the cells in HBSS were used for analysis of ROS levels. The DCF signal of each well was obtained using a microplate reader (TECAN) at 37° C. (Ex/Em=485/535 nm)."}, "[3]": {"system": "HeLa cells", "test": "Cristae protecting ability by TEM", "format": "cell-based", "conditions": "50 or 100 nM 2 hours, then 0.5 mM H2O2 2 hours", "from_the_text": "In order to determine the mode of action of the peptide according to the disclosure, attenuation of cristae number in mitochondria was examined in relation to impaired mitochondrial function caused by H2O2 treatment. In other words, it was investigated whether promotion of normal mitochondrial function caused by CMP3013 was related to preservation of cristae structure. To evaluate this protective effect, transmission electron microscopy (TEM) images were used to observe changes in the shape and number of cristae in damaged HeLa cells in the presence or absence of CMP3013.\n1.8×10^6 HeLa cells were fixed with modified Karnovsky fixative [2% paraformaldehyde and 2% glutaraldehyde dissolved in […]] at 4° C. for 3 hours. A sample was washed three times with […] sodium cacodylate buffer (pH 7.2) at 4° C. for 10 minutes, and then post-fixed at 4° C. for 2 hours with 1% osmium tetroxide dissolved in […] sodium cacodylate buffer (pH 7.2). The sample was then washed twice briefly with distilled water. Subsequently, the sample was then en bloc stained with 0.5% uranyl acetate at 4° C. overnight. […]"}}, "note": "Where a SMILES comes first, the peptide text is derived from it.", "data": [{"smiles": "CC(=O)N[C@@H](CC1CCCCC1)C(=O)N[C@H]1CSSC[C@@H](C(=O)N[C@@H](CCCNC(=N)N)C(N)=O)NC(=O)[C@H](CC2CCCCC2)NC(=O)[C@H](CCCNC(=N)N)NC(=O)[C@H](CCCNC(=N)N)NC(=O)[C@H](CC2CCCCC2)NC(=O)[C@H](CC(C)C)NC(=O)[C@H](CCCNC(=N)N)NC(=O)[C@@H](NC(=O)[C@H](CC2CCCCC2)NC(C)=O)CSSC[C@@H](C(=O)N[C@@H](CCCNC(=N)N)C(N)=O)NC(=O)[C@H](CC2CCCCC2)NC(=O)[C@H](CCCNC(=N)N)NC(=O)[C@H](CCCNC(=N)N)NC(=O)[C@H](CC2CCCCC2)NC(=O)[C@H](CC(C)C)NC(=O)[C@H](CCCNC(=N)N)NC1=O", "note": "[CMP3013] (HELM PEPTIDE1{[ac].[Cha].C.R.L.[Cha].R.R.[Cha].C.R.[am]}|PEPTIDE2{[ac].[Cha].C.R.L.[Cha].R.R.[Cha].C.R.[am]}$PEPTIDE1,PEPTIDE2,3:R3-10:R3|PEPTIDE1,PEPTIDE2,10:R3-3:R3$$$V2.0)", "values": [{"measurement": "stronger binding capacity for cardiolipin than SS-31", "setting": "[1]", "result": "approximately 100 fold"}, {"measurement": "ROS production inhibiting ability", "setting": "[2]", "result": "equivalent or better ROS production inhibiting ability than SS-31"}, {"measurement": "number of cristae structures (TEM)", "setting": "[3]", "result": "same number of normal cristae structures as in the control group with no treatment"}]}]}
